The record followed here is US10219516B2, “Molecules having pesticidal utility, and intermediates, compositions, and processes, related thereto” (priority 2015, dated 2019).

Assay type in all cases: in vivo
Assay [1] concerns Cabbage Looper (Trichoplusia ni, TRIPNI). The experiment in a line: Bioassay on Cabbage Looper (CL), 128-well diet tray assay. Particulars: Trichoplusia ni; Cabbage Looper, 128-well diet tray assay; read-out: CL rating. The essentials:
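Test molecule is dissolved in 90:10 acetone-water and applied at 50 μg/cm^2 onto artificial diet, then dried. One to five second-instar larvae go into each of eight wells. Trays, sealed but vented, stay at 25° C., 14:10 light-dark, five to seven days, after which mortality is averaged.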

The subject of assay [2] is Yellow Fever Mosquito (Aedes aegypti, AEDSAE). The experiment in a line: Bioassay on Yellow Fever Mosquito (YFM), 96-well plate larval assay. Particulars: Yellow Fever Mosquito, 96-well plate larval assay. The essentials:
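Compound stocks at 4000 ppm in DMSO were diluted with 90:10 water/acetone, and 15 μL aliquots were dispensed into six replicate plates. About 1-day-old larvae in liver-powder water were added per well. Plates were covered and held at room temperature for 3 days before each well was scored for mortality.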

Assay [3] relates to Beet Armyworm (Spodoptera exigua, LAPHEG). Description: Bioassay on Beet Armyworm (BAW), 128-well diet tray assay. Particulars: Beet Armyworm, 128-well diet tray assay, read-out: BAW rating. The essentials:
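Diet in each of eight wells received 50 μg/cm^2 of test molecule (90:10 acetone-water, dried), then one to five second-instar larvae were added. Mortality (%) was scored after five to seven days at 25° C. under 14:10 light-dark and averaged across the wells.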

Regarding `O=C(Nc1ccc2c(c1)C(=O)N(c1ccc(F)cc1)C2=O)c1cc(NC(=O)[C@H]2[C@H](c3cc(Cl)cc(Cl)c3)C2(Cl)Cl)ccc1Cl` (relative stereo) [F504, 2-Chloro-5-(trans)-(2,2-dichloro-3-(3,5-dichlorophenyl)cyclopropane-1-carboxamido)-N-(2-(4-fluorophenyl)-1,3-dioxoisoindolin-5-yl)benzamide], the pest or weed control at 50 µg/cm2 in assay [1] and in assay [3] was 50 to 100% throughout. Further, the YFM rating result in assay [2] is recorded as “A (80-100)”.
Regarding `CC(C)(C)OC(=O)Nc1cccc(NC(=O)c2cc(NC(=O)[C@H]3[C@H](c4ccc(F)c(Cl)c4)C3(Cl)Cl)ccc2Cl)n1` (relative stereo) [F506, tert-Butyl (6-(2-chloro-5-(trans-2,2-dichloro-3-(3-chloro-4-fluorophenyl)cyclopropane-1-carboxamido)benzamido)pyridin-2-yl)carbamate], the pest or weed control at 50 µg/cm2 in assay [1] and in assay [3] was 50 to 100% in each case. Besides, in assay [2], the YFM rating entry is recorded as “A (80-100)”.
For `O=C(Nc1ccc2c(c1)CCN2)c1cc(NC(=O)[C@H]2[C@H](c3cc(Cl)cc(Cl)c3)C2(Cl)Cl)ccc1Cl` (relative stereo) [F511, 2-Chloro-5-(trans)-(2,2-dichloro-3-(3,5-dichlorophenyl)cyclopropane-1-carboxamido)-N-(indolin-5-yl)benzamide], the pest or weed control at 50 µg/cm2 in assay [1] and in assay [3] was 50 to 100% in each case. Further, the YFM rating result in assay [2] was “A (80-100)”.
Turning to `CC(C)(C)OC(=O)N(C(=O)OC(C)(C)C)c1c(F)ccc(NC(=O)c2cc(NC(=O)[C@H]3[C@H](c4cccc(C(F)(F)F)c4)C3(Cl)Cl)ccc2Cl)c1F` (relative stereo) [F516, trans-tert-Butyl-N-((tert-butoxy)carbonyl)-N-(3-(2-chloro-5-(2,2-dichloro-3-(3-(trifluoromethyl)phenyl)cyclopropane-1-carboxamido)benzamido)-2,6-difluorophenyl)carbamate], the pest or weed control at 50 µg/cm2 in assay [1] and in assay [3] was 50 to 100% each time. For the same molecule, the YFM rating result in assay [2] is “A (80-100)”.
Take `CN1Cc2ccc(NC(=O)c3cc(NC(=O)[C@H]4[C@H](c5cc(Cl)cc(Cl)c5)C4(Cl)Cl)ccc3Cl)cc2C1=O` (relative stereo) [F517, 2-Chloro-5-(trans)-(2,2-dichloro-3-(3,5-dichlorophenyl)cyclopropane-1-carboxamido)-N-(2-methyl-3-oxoisoindolin-5-yl)benzamide]: the pest or weed control at 50 µg/cm2 in assay [1] and in assay [3] was 50 to 100% throughout. Further, the YFM rating entry in assay [2] is “A (80-100)”.
For `CN1Cc2cc(NC(=O)c3cc(NC(=O)[C@H]4[C@H](c5cc(Cl)cc(Cl)c5)C4(Cl)Cl)ccc3Cl)ccc2C1=O` (relative stereo) [F518, 2-Chloro-5-(trans)-(2,2-dichloro-3-(3,5-dichlorophenyl)cyclopropane-1-carboxamido)-N-(2-methyl-1-oxoisoindolin-5-yl)benzamide], the pest or weed control at 50 µg/cm2 in assay [1] and in assay [3] was 50 to 100% throughout. Further, in assay [2], the YFM rating entry is reported as “A (80-100)”.
As to `O=C(Nc1cc2cc[nH]c2cc1F)c1cc(NC(=O)[C@H]2[C@H](c3cc(Cl)cc(Cl)c3)C2(Cl)Cl)ccc1Cl` (relative stereo) [F527, 2-Chloro-5-(trans)-(2,2-dichloro-3-(3,5-dichlorophenyl)cyclopropane-1-carboxamido)-N-(6-fluoro-1H-indol-5-yl)benzamide], the pest or weed control at 50 µg/cm2 in assay [1] and in assay [3] was 50 to 100% throughout. In addition, in assay [2], the YFM rating result is on record as “A (80-100)”.
`O=C(Nc1cccc2[nH]ccc12)c1cc(NC(=O)[C@H]2[C@H](c3cc(Cl)cc(Cl)c3)C2(Cl)Cl)ccc1Cl` (relative stereo) [F528, 2-Chloro-5-(trans)-(2,2-dichloro-3-(3,5-dichlorophenyl)cyclopropane-1-carboxamido)-N-(1H-indol-4-yl)benzamide]: the pest or weed control at 50 µg/cm2 in assay [1] and in assay [3] was 50 to 100% in each case. Also, in assay [2], the YFM rating entry is listed as “A (80-100)”.
For the molecule `O=C(Nc1cccc2cc[nH]c12)c1cc(NC(=O)[C@H]2[C@H](c3cc(Cl)cc(Cl)c3)C2(Cl)Cl)ccc1Cl` (relative stereo) [F529, 2-Chloro-5-(trans)-(2,2-dichloro-3-(3,5-dichlorophenyl)cyclopropane-1-carboxamido)-N-(1H-indol-7-yl)benzamide], the pest or weed control at 50 µg/cm2 in assay [1] and in assay [3] was 50 to 100% each time. For the same molecule, in assay [2], the YFM rating result was “A (80-100)”.
Consider `Cn1ccc2c(NC(=O)c3cc(NC(=O)[C@H]4[C@H](c5cc(Cl)cc(Cl)c5)C4(Cl)Cl)ccc3Cl)cccc21` (relative stereo) [F530, 2-Chloro-5-(trans)-(2,2-dichloro-3-(3,5-dichlorophenyl)cyclopropane-1-carboxamido)-N-(1-methyl-1H-indol-4-yl)benzamide], for which the pest or weed control at 50 µg/cm2 in assay [1] and in assay [3] was 50 to 100% in each case. Moreover, in assay [2], the YFM rating result was “A (80-100)”.
Turning to `Cn1ccc2cccc(NC(=O)c3cc(NC(=O)[C@H]4[C@H](c5cc(Cl)cc(Cl)c5)C4(Cl)Cl)ccc3Cl)c21` (relative stereo) [F531, 2-Chloro-5-(trans)-(2,2-dichloro-3-(3,5-dichlorophenyl)cyclopropane-1-carboxamido)-N-(1-methyl-1H-indol-7-yl)benzamide], the pest or weed control at 50 µg/cm2 in assay [1] and in assay [3] was 50 to 100% each time. Moreover, in assay [2], the YFM rating result is reported as “A (80-100)”.
`O=C(Nc1ccc(F)cc1F)c1cc(NC(=O)[C@H]2[C@H](c3ccc(Br)c(Br)c3)C2(Cl)Cl)ccc1Cl` (relative stereo) [F532, 2-Chloro-5-(trans)-(2,2-dichloro-3-(3,4-dibromophenyl)cyclopropane-1-carboxamido)-N-(2,4-difluorophenyl)benzamide]: the pest or weed control at 50 µg/cm2 in assay [1] and in assay [3] was 50 to 100% in each case. Moreover, in assay [2], the YFM rating result was “A (80-100)”.
In the case of `O=C(Nc1ccc(F)cc1)c1cc(NC(=O)[C@H]2[C@H](c3cc(F)c(Br)c(F)c3)C2(Cl)Cl)ccc1Cl` (relative stereo) [F538, 5-(trans-3-(4-bromo-3,5-difluorophenyl)-2,2-dichlorocyclopropane-1-carboxamido)-2-chloro-N-(4-fluorophenyl)benzamide], the pest or weed control at 50 µg/cm2 in assay [1] and in assay [3] was 50 to 100% throughout. The YFM rating result in assay [2] is “A (80-100)”.
Take `COc1cc([C@H]2[C@H](C(=O)Nc3ccc(Cl)c(C(=O)Nc4ccc(F)cc4)c3)C2(Cl)Cl)cc(F)c1Br` (relative stereo) [F539, 5-(trans-3-(4-Bromo-3-fluoro-5-methoxyphenyl)-2,2-dichlorocyclopropane-1-carboxamido)-2-chloro-N-(4-fluorophenyl)benzamide]: the pest or weed control at 50 µg/cm2 in assay [1] and in assay [3] was 50 to 100% throughout. The YFM rating result in assay [2] is reported as “A (80-100)”.
Turning to `O=C(Nc1ccc(F)cc1F)c1cc(NC(=O)[C@H]2[C@H](c3cc(F)c(Br)c(F)c3)C2(Cl)Cl)ccc1Cl` (relative stereo) [F541, 5-(trans-3-(4-Bromo-3,5-difluorophenyl)-2,2-dichlorocyclopropane-1-carboxamido)-2-chloro-N-(2,4-difluorophenyl)benzamide], the pest or weed control at 50 µg/cm2 in assay [1] and in assay [3] was 50 to 100% throughout. For the same molecule, in assay [2], the YFM rating result is recorded as “A (80-100)”.
For `COc1cc([C@H]2[C@H](C(=O)Nc3ccc(Cl)c(C(=O)Nc4ccc(F)cc4F)c3)C2(Cl)Cl)cc(F)c1Br` (relative stereo) [F542, 5-(trans-3-(4-Bromo-3-fluoro-5-methoxyphenyl)-2,2-dichlorocyclopropane-1-carboxamido)-2-chloro-N-(2,4-difluorophenyl)benzamide], the pest or weed control at 50 µg/cm2 in assay [1] and in assay [3] was 50 to 100% throughout. The YFM rating entry in assay [2] was “A (80-100)”.
Turning to `COc1c(F)cc([C@H]2[C@H](C(=O)Nc3ccc(Cl)c(C(=O)Nc4ccc(F)cc4F)c3)C2(Cl)Cl)cc1Br` (relative stereo) [F543, 5-(trans-3-(3-Bromo-5-fluoro-4-methoxyphenyl)-2,2-dichlorocyclopropane-1-carboxamido)-2-chloro-N-(2,4-difluorophenyl)benzamide], the pest or weed control at 50 µg/cm2 in assay [1] and in assay [3] was 50 to 100% in each case. Besides, the YFM rating result in assay [2] is “A (80-100)”.
On to `COc1cc(NC(=O)c2cc(NC(=O)[C@H]3[C@H](c4cc(Cl)cc(Cl)c4)C3(Cl)Cl)ccc2Cl)ccn1` (relative stereo) [F544, 2-Chloro-5-(trans-2,2-dichloro-3-(3,5-dichlorophenyl)cyclopropane-1-carboxamido)-N-(2-methoxypyridin-4-yl)benzamide], for which the pest or weed control at 50 µg/cm2 in assay [1] and in assay [3] was 50 to 100% in each case. Further, the YFM rating entry in assay [2] is on record as “A (80-100)”.
`COc1cc(NC(=O)c2cc(NC(=O)[C@H]3[C@H](c4ccc(F)c(Cl)c4)C3(Cl)Cl)ccc2Cl)ccn1` (relative stereo) [F545, 2-Chloro-5-(trans-2,2-dichloro-3-(3-chloro-4-fluorophenyl)cyclopropane-1-carboxamido)-N-(2-methoxypyridin-4-yl)benzamide]: the pest or weed control at 50 µg/cm2 in assay [1] and in assay [3] was 50 to 100% throughout. Further, the YFM rating result in assay [2] is listed as “A (80-100)”.
